Experiment: Reversal of formed copper phosphite precipitate by added agent (Example 1)
Assay type: physicochemical
Settings: agent added at final concentration of 10 mM; 0.6 g/l Cu(OH)2, 14.4 g/l KH2PO3, 1 g/l K2CO3, pH 5.5

**Q.** For `O=C([O-])CN(CCN(CC(=O)[O-])CC(=O)O)CC(=O)O.[Na+].[Na+]` [disodium EDTA], which “effect on formed copper phosphite precipitate” value is on record?
**A.** immediately disappeared
